Source: patent US20110230481A2, “DERIVATIVES OF TETRABROMOBENZIMIDAZOLE, A PROCESS FOR THE PREPARATION THEREOF, A PHARMACEUTICAL COMPOSITION COMPRISING THE SAME, A METHOD OF USING THE SAME, A METHOD FOR MODULATING OR REGULATING SERINE/THREONINE KINASES, AND SERINE/THREONINE KINASES MODULATING AGENT” (SELVITA S.A., priority 2009, published 2011)

Experiments:
Assay in all cases: KINOMEscan Max
Format in all cases: binding
[1] = biological target: T1, PIK3CA(Q546K) (Homo sapiens, UniProt P42336, Q546K)
T1 construct: DNA tag (qPCR read-out)
Method in brief: (§1)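 qPCR read-out of a DNA tag measures how much tagged kinase stays bound to immobilized active-site ligand when test compound is present, i.e. competition binding.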

[2] = biological target: T2, MYLK4 (Homo sapiens, UniProt Q86YV6)
T2 construct: DNA tag (qPCR read-out); purchased Ambit Kinomescan
Method in brief: as §1

[3] = biological target: T3, RSK3(Kin.Dom.1-N-terminal) (Homo sapiens, UniProt Q15349)
T3 construct: RSK3(Kin.Dom.1-N-terminal); DNA tag (qPCR read-out)
Method in brief: as §1

[4] = biological target: LIMK1 (Homo sapiens, UniProt P53667)
Method in brief: as §1

[5] = biological target: T4, QSK (Homo sapiens, UniProt Q9Y2K2); conditions: 1 μM
T4 construct: DNA tag (qPCR read-out)
Method in brief: as §1

[6] = biological target: T5, SRPK2 (Homo sapiens, UniProt P78362)
T5 construct: DNA tag (qPCR read-out)
Method in brief: as §1

[7] = biological target: MLK2 (Homo sapiens, UniProt Q02779)
Method in brief: as §1

[8] = biological target: MYO3B (Homo sapiens, UniProt Q8WXR4)
Method in brief: as §1

[9] = biological target: TRKB (Homo sapiens, UniProt Q16620)
Method in brief: as §1

[10] = biological target: T6, ABL1(F317I)-nonphosphorylated (Homo sapiens, UniProt P00519, F317I)
T6 construct: purchased Ambit (KINOMEscan Max service)
Method in brief: as §1

[11] = biological target: T7, CDKL5 (Homo sapiens, UniProt O76039)
T7 construct: DNA tag (qPCR read-out)
Method in brief: as §1

[12] = biological target: MEK3 (Homo sapiens, UniProt P46734)
Method in brief: as §1

[13] = biological target: T8, EGFR(G719S) (Homo sapiens, UniProt P00533, G719S); conditions: 1 μM
T8 construct: purchased Ambit (KINOMEscan Max panel service)
Method in brief: as §1

[14] = biological target: PKNB(M.tuberculosis) (Mycobacterium tuberculosis, UniProt P9WI81)
[15] = biological target: T9, LIMK2 (Homo sapiens, UniProt P53671)
T9 construct: purchased Ambit Kinomescan (contract screening)
Method in brief: as §1

[16] = biological target: T10, EIF2AK1 (Homo sapiens, UniProt Q9BQI3)
T10 construct: DNA tag (qPCR read-out)
Method in brief: as §1

[17] = biological target: T11, SgK110 (Homo sapiens, UniProt P0C264)
T11 construct: DNA tag (qPCR read-out)
Method in brief: as §1

[18] = biological target: T12, DLK (Homo sapiens, UniProt Q12852); conditions: 1 μM
T12 construct: DNA tag (qPCR read-out)
Method in brief: as §1

[19] = biological target: T13, CAMK4 (Homo sapiens, UniProt Q16566)
T13 construct: DNA tag (qPCR label); purchased Ambit Kinomescan (contract screening)
Method in brief: as §1

[20] = biological target: T14, PIP5K2B (Homo sapiens, UniProt P78356)
T14 construct: purchased Ambit Kinomescan (contract screening)
Method in brief: as §1

[21] = biological target: FGFR2 (Homo sapiens, UniProt P21802)
Method in brief: as §1

[22] = biological target: T15, CDC2L5 (Homo sapiens, UniProt Q14004); conditions: 1 μM
T15 construct: DNA tag (qPCR read-out); purchased Ambit Kinomescan
Method in brief: as §1

[23] = biological target: T16, FLT3(D835H) (Homo sapiens, UniProt P36888, D835H)
T16 construct: purchased Ambit (KINOMEscan Max service)
Method in brief: as §1

[24] = biological target: MLCK (Homo sapiens, UniProt Q32MK0)
Method in brief: as §1

[25] = biological target: TRKC (Homo sapiens, UniProt Q16288)
Method in brief: as §1

[26] = biological target: T17, CDKL1 (Homo sapiens, UniProt Q00532)
T17 construct: DNA tag (qPCR label); purchased Ambit Kinomescan (contract screening)
Method in brief: as §1

[27] = biological target: T18, ASK2 (Homo sapiens, UniProt O95382)
T18 construct: DNA tag (qPCR read-out)
Method in brief: as §1

[28] = biological target: T19, CSNK2A2 (Homo sapiens, UniProt P19784)
T19 construct: DNA tag (qPCR read-out)
Method in brief: as §1

[29] = biological target: NEK4 (Homo sapiens, UniProt P51957)
Method in brief: as §1

[30] = biological target: T20, MYLK2 (Homo sapiens, UniProt Q9H1R3)
T20 construct: purchased Ambit (KINOMEscan Max service)
Method in brief: as §1

[31] = biological target: T21, GSK3B (Homo sapiens, UniProt P49841)
T21 construct: purchased Ambit Kinomescan (contract panel, KINOMEscan Max)
Method in brief: as §1

[32] = biological target: T22, GAK (Homo sapiens, UniProt O14976)
T22 construct: purchased Ambit (KINOMEscan Max service)
Method in brief: as §1

[33] = biological target: T23, ACVRL1 (Homo sapiens, UniProt P37023)
T23 construct: DNA tag (qPCR label); purchased Ambit Kinomescan (contract screening)
Method in brief: as §1

[34] = biological target: ABL1(F317L)-phosphorylated (Homo sapiens, UniProt P00519, F317L)
Method in brief: as §1

T20 sequence (Q9H1R3 whole entry): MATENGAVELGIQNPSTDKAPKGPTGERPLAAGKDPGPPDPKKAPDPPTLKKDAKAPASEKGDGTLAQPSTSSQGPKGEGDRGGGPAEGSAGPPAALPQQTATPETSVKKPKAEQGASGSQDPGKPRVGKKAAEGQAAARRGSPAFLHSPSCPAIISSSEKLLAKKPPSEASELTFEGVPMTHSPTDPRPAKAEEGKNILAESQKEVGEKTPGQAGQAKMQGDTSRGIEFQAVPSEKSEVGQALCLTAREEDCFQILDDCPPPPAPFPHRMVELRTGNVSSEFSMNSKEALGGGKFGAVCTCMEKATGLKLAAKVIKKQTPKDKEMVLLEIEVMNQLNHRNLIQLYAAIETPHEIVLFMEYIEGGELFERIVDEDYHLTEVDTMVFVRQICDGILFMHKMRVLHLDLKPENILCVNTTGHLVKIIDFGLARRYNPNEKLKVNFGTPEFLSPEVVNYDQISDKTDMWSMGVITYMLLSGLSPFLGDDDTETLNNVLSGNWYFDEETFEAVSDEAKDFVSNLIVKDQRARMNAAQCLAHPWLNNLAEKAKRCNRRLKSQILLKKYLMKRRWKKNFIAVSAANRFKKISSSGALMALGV
Sequence of TRKB (Q16620 32-822): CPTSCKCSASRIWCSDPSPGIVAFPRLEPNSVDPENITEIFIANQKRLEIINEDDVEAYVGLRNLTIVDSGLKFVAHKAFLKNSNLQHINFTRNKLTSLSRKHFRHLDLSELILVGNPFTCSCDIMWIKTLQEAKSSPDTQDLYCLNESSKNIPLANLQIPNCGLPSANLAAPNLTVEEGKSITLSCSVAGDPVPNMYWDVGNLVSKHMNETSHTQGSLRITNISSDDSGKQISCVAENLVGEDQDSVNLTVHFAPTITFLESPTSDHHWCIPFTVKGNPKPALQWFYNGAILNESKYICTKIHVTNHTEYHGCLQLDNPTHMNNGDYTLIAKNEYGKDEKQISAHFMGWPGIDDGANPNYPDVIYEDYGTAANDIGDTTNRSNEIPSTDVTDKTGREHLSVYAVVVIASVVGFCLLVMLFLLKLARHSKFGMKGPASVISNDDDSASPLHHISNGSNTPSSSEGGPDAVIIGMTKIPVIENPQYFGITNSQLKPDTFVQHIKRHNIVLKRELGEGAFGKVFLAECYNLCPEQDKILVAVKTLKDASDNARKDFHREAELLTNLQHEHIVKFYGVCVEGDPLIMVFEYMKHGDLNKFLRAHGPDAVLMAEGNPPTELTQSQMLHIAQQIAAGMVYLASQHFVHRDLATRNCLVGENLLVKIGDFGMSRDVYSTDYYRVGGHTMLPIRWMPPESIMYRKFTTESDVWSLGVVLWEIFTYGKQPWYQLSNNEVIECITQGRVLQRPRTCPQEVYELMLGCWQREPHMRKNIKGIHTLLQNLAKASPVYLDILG
T19 sequence (P19784 whole entry): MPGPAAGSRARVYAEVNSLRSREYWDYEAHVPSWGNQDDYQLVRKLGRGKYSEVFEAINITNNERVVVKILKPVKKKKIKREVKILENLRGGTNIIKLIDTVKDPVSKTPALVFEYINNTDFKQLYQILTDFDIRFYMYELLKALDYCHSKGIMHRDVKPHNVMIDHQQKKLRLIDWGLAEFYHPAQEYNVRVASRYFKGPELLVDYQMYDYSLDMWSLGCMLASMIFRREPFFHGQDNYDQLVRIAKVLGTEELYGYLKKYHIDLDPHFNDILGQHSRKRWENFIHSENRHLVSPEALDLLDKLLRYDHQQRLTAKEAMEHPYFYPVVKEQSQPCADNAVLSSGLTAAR
Sequence of TRKC (Q16288 32-839): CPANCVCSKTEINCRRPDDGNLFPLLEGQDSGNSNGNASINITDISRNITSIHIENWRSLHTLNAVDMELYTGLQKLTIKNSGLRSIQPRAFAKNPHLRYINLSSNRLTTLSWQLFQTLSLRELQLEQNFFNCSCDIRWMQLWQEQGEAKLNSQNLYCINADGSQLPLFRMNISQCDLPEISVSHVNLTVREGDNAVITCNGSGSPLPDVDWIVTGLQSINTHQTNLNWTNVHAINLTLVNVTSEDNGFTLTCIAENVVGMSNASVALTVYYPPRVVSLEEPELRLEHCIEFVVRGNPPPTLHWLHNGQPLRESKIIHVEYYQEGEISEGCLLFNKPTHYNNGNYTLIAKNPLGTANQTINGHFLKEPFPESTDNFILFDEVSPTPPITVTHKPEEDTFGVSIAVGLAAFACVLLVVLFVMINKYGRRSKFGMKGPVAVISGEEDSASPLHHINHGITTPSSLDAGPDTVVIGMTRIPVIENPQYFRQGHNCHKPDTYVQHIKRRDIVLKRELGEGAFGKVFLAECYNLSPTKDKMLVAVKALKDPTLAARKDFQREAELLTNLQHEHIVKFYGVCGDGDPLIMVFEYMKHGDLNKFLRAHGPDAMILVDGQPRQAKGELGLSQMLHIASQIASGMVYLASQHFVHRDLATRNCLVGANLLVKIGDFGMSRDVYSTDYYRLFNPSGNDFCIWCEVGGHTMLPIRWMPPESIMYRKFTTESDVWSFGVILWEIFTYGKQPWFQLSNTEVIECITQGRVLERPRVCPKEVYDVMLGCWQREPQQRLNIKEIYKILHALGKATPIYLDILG
Sequence of MYO3B (Q8WXR4 whole entry): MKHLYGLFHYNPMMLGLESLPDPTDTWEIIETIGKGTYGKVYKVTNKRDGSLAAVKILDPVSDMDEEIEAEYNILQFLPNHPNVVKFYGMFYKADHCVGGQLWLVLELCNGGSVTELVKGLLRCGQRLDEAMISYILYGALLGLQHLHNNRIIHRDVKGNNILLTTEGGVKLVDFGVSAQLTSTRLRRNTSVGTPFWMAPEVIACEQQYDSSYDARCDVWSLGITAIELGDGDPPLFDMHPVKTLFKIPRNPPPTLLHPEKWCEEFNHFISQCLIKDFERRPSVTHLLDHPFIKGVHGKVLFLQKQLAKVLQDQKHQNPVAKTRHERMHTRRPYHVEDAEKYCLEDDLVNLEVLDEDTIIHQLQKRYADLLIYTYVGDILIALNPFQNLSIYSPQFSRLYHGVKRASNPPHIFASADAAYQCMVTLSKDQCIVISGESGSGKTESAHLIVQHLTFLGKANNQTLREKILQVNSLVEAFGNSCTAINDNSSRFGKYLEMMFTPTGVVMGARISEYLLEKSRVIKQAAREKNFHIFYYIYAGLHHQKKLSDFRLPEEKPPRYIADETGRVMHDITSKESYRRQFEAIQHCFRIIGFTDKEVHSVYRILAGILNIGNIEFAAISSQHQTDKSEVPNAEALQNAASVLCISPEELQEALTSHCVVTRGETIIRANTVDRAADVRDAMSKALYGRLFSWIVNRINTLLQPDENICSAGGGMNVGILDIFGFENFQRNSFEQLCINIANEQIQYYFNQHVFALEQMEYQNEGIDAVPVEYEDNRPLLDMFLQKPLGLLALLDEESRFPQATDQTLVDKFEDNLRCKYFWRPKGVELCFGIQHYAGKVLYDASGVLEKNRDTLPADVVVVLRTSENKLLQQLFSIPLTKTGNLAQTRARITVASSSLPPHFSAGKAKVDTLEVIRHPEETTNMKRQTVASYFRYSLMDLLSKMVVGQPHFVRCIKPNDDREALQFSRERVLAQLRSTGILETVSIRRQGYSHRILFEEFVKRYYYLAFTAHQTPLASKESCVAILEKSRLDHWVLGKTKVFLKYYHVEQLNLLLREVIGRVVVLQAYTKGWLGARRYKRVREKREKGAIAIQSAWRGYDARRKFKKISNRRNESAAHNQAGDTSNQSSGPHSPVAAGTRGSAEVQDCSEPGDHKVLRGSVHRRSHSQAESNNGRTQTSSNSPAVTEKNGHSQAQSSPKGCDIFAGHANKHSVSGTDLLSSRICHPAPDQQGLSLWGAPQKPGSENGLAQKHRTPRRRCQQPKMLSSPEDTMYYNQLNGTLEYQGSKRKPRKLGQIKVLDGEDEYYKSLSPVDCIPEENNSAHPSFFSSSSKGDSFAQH
Sequence of MLK2 (Q02779 whole entry): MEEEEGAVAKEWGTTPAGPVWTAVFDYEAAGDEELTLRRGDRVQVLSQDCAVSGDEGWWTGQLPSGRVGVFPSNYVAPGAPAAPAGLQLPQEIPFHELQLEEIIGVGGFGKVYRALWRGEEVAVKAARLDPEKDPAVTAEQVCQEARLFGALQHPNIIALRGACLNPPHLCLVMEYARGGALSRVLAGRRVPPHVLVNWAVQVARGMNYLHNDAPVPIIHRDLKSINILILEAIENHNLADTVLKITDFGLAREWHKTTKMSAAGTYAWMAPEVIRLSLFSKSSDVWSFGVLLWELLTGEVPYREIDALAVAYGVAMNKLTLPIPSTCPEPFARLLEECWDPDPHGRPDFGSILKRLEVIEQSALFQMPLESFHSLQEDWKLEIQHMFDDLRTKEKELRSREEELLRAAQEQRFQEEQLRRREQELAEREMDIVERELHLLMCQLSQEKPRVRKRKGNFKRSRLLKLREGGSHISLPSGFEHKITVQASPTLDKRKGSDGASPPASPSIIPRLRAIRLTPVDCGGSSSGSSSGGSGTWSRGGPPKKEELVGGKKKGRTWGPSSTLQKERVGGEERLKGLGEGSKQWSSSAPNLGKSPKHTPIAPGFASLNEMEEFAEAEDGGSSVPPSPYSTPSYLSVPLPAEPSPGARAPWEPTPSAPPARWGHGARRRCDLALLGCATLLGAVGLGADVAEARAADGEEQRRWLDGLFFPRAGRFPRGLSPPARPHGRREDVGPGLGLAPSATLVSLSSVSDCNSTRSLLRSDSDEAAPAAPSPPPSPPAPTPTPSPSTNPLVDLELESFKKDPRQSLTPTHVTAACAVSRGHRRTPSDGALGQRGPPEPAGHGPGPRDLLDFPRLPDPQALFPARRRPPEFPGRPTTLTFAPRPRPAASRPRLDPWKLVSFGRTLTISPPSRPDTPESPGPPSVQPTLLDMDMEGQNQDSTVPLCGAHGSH

NCCCNc1nc2c(Br)c(Br)c(Br)c(Br)c2[nH]1 [Compound 11, N-(3-aminopropyl)-4,5,6,7-tetrabromo-1H-benzo[d]imidazol-2-amine]
remaining binding at 1 µM [1]: 100% | remaining binding at 1 µM [2]: 24% | remaining binding at 1 µM [3]: 100% | remaining binding at 1 µM [4]: 96% | % binding [5]: 100% | remaining binding at 1 µM [6]: 100% | remaining binding at 1 µM [7]: 100% | remaining binding at 1 µM [8]: 100% | remaining binding at 1 µM [9]: 92% | remaining binding at 1 µM [10]: 64% | remaining binding at 1 µM [11]: 25% | remaining binding at 1 µM [12]: 78% | % binding [13]: 100% | remaining binding at 1 µM [14]: 91% | remaining binding at 1 µM [15]: 96% | remaining binding at 1 µM [16]: 89% | remaining binding at 1 µM [17]: 100% | % binding [18]: 87% | remaining binding at 1 µM [19]: 100% | remaining binding at 1 µM [20]: 97% | remaining binding at 1 µM [21]: 77% | % binding [22]: 24% | remaining binding at 1 µM [23]: 58% | remaining binding at 1 µM [24]: 92% | remaining binding at 1 µM [25]: 94% | remaining binding at 1 µM [26]: 100% | remaining binding at 1 µM [27]: 90% | remaining binding at 1 µM [28]: 90% | remaining binding at 1 µM [29]: 98% | remaining binding at 1 µM [30]: 86% | remaining binding at 1 µM [31]: 100% | remaining binding at 1 µM [32]: 81% | remaining binding at 1 µM [33]: 100% | remaining binding at 1 µM [34]: 100%
